Measurements reported in patent publication US7887818B2, “Neospora caninum vaccine” (The United States of America as represented by the …, priority 2008, dated 2011).

Tests used:
NcSRS2 [1] = assay: ELISA of NcSRS2-specific antibody levels in sera of vaccinated mice; format: in vivo, N. caninum; conditions: mouse sera 1:100, both trials, 3 weeks after challenge
Experimental: (§1) Adult female BALB/c mice (10-12 weeks old; 15 per group; National Cancer Institute, Frederick, Md.) were immunized s.c. in the lower back with a dose of 20 μg of rNcCyP, rNcSRS2, or 20 μg each of NcCyP and NcSRS2 formulated with adjuvants ImmuMax-SR® (a chitosan-based oil emulsion formulation [U.S. Pat. No. 5,980,912; Nov. 9, 1999]; (Repros Therapeutics Inc., formerly Zonagen Inc., TX) and CpG (ImmunoEasy, Qiagen) (Groups 1, 2, and 3). Control groups received non-recombinant antigen formulated with adjuvants ImmuMax-SR® and CpG (Group 4) or RPMI 1640 alone (Groups 5 and 6). The mice were given a secondary immunization 3 weeks later with the same preparation used in the primary immunization. All mice except for those in Group 6 were challenged s.c. with 10^5 N. caninum tachyzoites (NC1 isolate) in 50 μl RPMI 1640 three weeks following the secondary immunization. Group 6 mice received RPMI 1640 only and remained uninfected throughout the experiment (Table 1). […]
(§2) Antigen-specific antibody levels of vaccinated mice were determined by ELISA using purified rNcCyP or rNcSRS2. […] The wells were incubated with alkaline phosphatase-labeled goat anti-mouse IgG (H+L ch. sp., 1:5,000, Sigma) for 1 hr at RT, followed by addition of p-nitrophenyl phosphate substrate (Sigma), and reading on a microtiter plate reader at […].

NcCyP [2] = assay: ELISA of NcCyP-specific antibody levels in sera of vaccinated mice; format: in vivo, N. caninum; conditions: mouse sera 1:100, both trials, 3 weeks after challenge
Experimental: as §1, §2

[3] = system: N. caninum tachyzoites (NC1 isolate); assay: Vaccination and N. caninum tachyzoite challenge; N. caninum-specific Nc5 PCR on brain tissue; format: in vivo, BALB/c mice; conditions: for Positive/Total = number of mice brain positive for N. caninum DNA/total mice in the group: 3 weeks after s.c. challenge with 10^5 tachyzoites; for level of protection against challenge infection compared to control groups: vs non-recombinant- or non-vaccinated groups
Experimental: (§3) Adult female BALB/c mice (10-12 weeks old; 15 per group; National Cancer Institute, Frederick, Md.) were immunized s.c. in the lower back with a dose of 20 μg of rNcCyP, rNcSRS2, or 20 μg each of NcCyP and NcSRS2 formulated with adjuvants ImmuMax-SR® (a chitosan-based oil emulsion formulation [U.S. Pat. No. 5,980,912; Nov. 9, 1999]; (Repros Therapeutics Inc., formerly Zonagen Inc., TX) and CpG (ImmunoEasy, Qiagen) (Groups 1, 2, and 3). Control groups received non-recombinant antigen formulated with adjuvants ImmuMax-SR® and CpG (Group 4) or RPMI 1640 alone (Groups 5 and 6). The mice were given a secondary immunization 3 weeks later with the same preparation used in the primary immunization. All mice except for those in Group 6 were challenged s.c. with 10^5 N. caninum tachyzoites (NC1 isolate) in 50 μl RPMI 1640 three weeks following the secondary immunization. Group 6 mice received RPMI 1640 only and remained uninfected throughout the experiment (Table 1). All mice were euthanized 3 weeks after challenge infection, and brain tissue and blood were collected at necropsy and processed for Neospora DNA and serum antibody analysis as described (Liddell et al. 1999b. Int J. Parasitol. 29: 1583-1587). Animal use and care of the present study was approved by the BARC Animal Use and Care Committee in accordance with appropriate regulations.
Mouse brain tissue was extracted for DNA using standard procedures (Jenkins et al. 2004, supra). The presence of N. caninum in brain tissue was determined by N. caninum-specific Nc5 PCR using Np6/Np21 primers (Muller et al. 1996. J. Clin. Microbiol. 34: 2850-2852; Yamage et al. 1996. J. Parasitol. 82: 272-279) and an internal standard to control for false negative reactions as described (Jenkins et al. 2004a, supra; Liddell et al. 1999a, supra).

NcSRS2 [4] = assay: Western blot detection of anti-NcSRS2 antibodies in mouse sera (NcAg as antigen); format: in vivo, N. caninum
Experimental: as §3, with “regulations. […]” for “regulations.”

NcCyP [5] = assay: Western blot detection of anti-NcCyP antibodies in mouse sera (NcAg as antigen); format: in vivo, N. caninum; conditions: for percent of mice with detectable antibodies against NcCyP: overall data from both trials
Experimental: as §3
The presence of specific antibodies to NcCyP or NcSRS2 was also confirmed with Western blotting using NcAg as antigen (FIG. 5). In brief, N. caninum tachyzoite protein (equivalent to 10^6 tachyzoites/blot strip) were fractionated by SDS-PAGE under reducing conditions and transblotted to Immobilon membrane (Millipore) in a semi-dry blot apparatus (BioRad). Low-range molecular weight markers (BioRad) were electrophoresed in a separate well to allow for Mr estimation of native N. caninum tachyzoite protein. After blotting, the membranes were cut into vertical strips, treated with blocking agent (PBS-2% non-fat dry milk) for 30 min at RT, and then incubated for 2 hr at RT with a 1:100 dilution of serum from individual mice in each treatment group. The blot strips were then incubated for 1 hr with biotinylated goat anti-mouse IgG (H+L ch. sp., 1:1000 dilution, Sigma Chemical Co.), followed by alkaline-phosphatase-labeled avidin (1:25,000 dilution, Sigma), and developed with NBT-BCIP substrate (Pierce). The blots were washed 3 times between each incubation step with PBS-0.05% Tween 20 (Sigma).

Substance: Group 1: recombinant Neospora caninum cyclophilin protein (SEQ ID NO:2), 20 μg formulated with adjuvants ImmuMax-SR and CpG
- levels of NcSRS2-specific antibodies (ELISA) compared to other groups (NcSRS2 [1]): higher (p<0.05)
- levels of NcCyP-specific antibodies (ELISA) compared to other groups (NcCyP [2]): significantly higher (p<0.01)
- Positive/Total = number of mice brain positive for N. caninum DNA/total mice in the group ([3]; Trial I): 1/15
- Positive/Total = number of mice brain positive for N. caninum DNA/total mice in the group ([3]; Trial II): 3/15
- average percent of mice brain-positive for N. caninum ([3]; average of both trials): 13%
- percent protection ([3]; for both trials, (mice brain negative for Nc DNA/total)x100, formulated with ImmuMax-SR/CpG): 80-93%
- Positive/Total (Mean) ([3]; mean positive/total from trials I and II): 2/15
- percent of mice brain-positive for N. caninum, range over the trials ([3]; range of trials I and II): 7-20%
- level of protection against challenge infection compared to control groups ([3]; listed as NcCyP): significantly higher protection
- level of protection against challenge infection compared to control groups ([3]; listed as rNcCyP): higher (p<0.001) levels of protection
- number of mice with detectable anti-NcSRS2 Ab in total mice of the group (NcSRS2 [4]; Trial I): 0/14
- number of mice with detectable anti-NcSRS2 Ab in total mice of the group (NcSRS2 [4]; Trial II): 0/15
- number of mice with detectable anti-NcCyP Ab in total mice of the group (NcCyP [5]; Trial I): 11/14^3
- number of mice with detectable anti-NcCyP Ab in total mice of the group (NcCyP [5]; Trial II): 12/15
- percent of mice with detectable antibodies against NcCyP (NcCyP [5]; listed as NcCyP): about 77%
- percent of mice with detectable antibodies against NcCyP (NcCyP [5]; listed as rNcCyP): 78%
